Measurements published in paper PMC6925341 (SLAS discovery : advancing life sciences R & D, 2019).
pIC50: −log10 of the molar value. Where two headings read alike, the source gives them in different places.

How the values were obtained:
293FT cells = experiment: cells; assay type: cell-based, Human; conditions: for pIC50: read-out: 293FT Cell Viability IC50; for cell viability IC50: control validation, known inhibitor
HPV16-PsV = experiment: organism not typed; assay type: cell-based, HPV-16; conditions: for pIC50: read-out: HPV Infection IC50; for reduction of HPV-16PsV infection, fold change compared with the control of cells only: 30 μM, secondary stock
SV40 promoter = SV40 promoter transfection in 293FT cells; assay type: cell-based; conditions: 30.0 μM, vs SV40 with no drug; data not shown
in vitro = assay type: cell-based, Human; conditions: human

For Nc1nc(Cl)nc2c1ncn2[C@@H]1O[C@H](CO)[C@@H](O)[C@@H]1F [Clofarabine], the pIC50 (293FT cells; Homo sapiens) was 5.70.

For Cc1cc(C2CCCCC2)n(O)c(=O)c1 [Ciclopirox], the pIC50 (293FT cells; Homo sapiens) was 5.10 and the pIC50 (HPV16-PsV; 72 h) was 5.70.

C[C@H]1O[C@@H](n2cc(F)c(=O)[nH]c2=O)[C@H](O)[C@@H]1O [Doxifluridine] gave a pIC50 (293FT cells; Homo sapiens) of 4.80 and a pIC50 (HPV16-PsV; 72 h) of 5.30.

For heparin, the “cell viability IC50” value (293FT cells) was 83.0 µg/mL and the “inhibition of HPV 16-PsV infection IC50” value (HPV16-PsV; control validation, known inhibitor) was 24 µg/mL.

COc1cc([C@@H]2c3cc4c(cc3[C@@H](O[C@@H]3O[C@@H]5CO[C@@H](C)O[C@H]5[C@H](O)[C@H]3O)[C@H]3COC(=O)[C@H]23)OCO4)cc(OC)c1O [Etoposide] showed a pIC50 (293FT cells; Homo sapiens) of 6.00 and a pIC50 (HPV16-PsV; 72 h) of 8.00.

With N=c1ccn2c(n1)O[C@H]1[C@H](O)[C@@H](CO)O[C@H]12 [Ancitabine] the pIC50 (293FT cells; Homo sapiens) was 5.30 and the pIC50 (HPV16-PsV; 72 h) was greater than 8.15.

In the case of Carrageenan, the “cell viability IC50” value (293FT cells) was no less than 2 µg/mL.

Compound Cc1nccn1CC1CCc2c(c3ccccc3n2C)C1=O (centres unmarked) [Ondansetron] has a pIC50 (HPV16-PsV; 72 h) of 5.30.

For CNCCC=C1c2ccccc2CCc2ccccc21 [Nortriptyline], the pIC50 (293FT cells; Homo sapiens) was less than 4.82 and the pIC50 (HPV16-PsV; 72 h) was 5.22.

Compound O=c1[nH]c(=O)n([C@H]2C[C@H](O)[C@@H](CO)O2)cc1F [Fluorodeoxyuridine] has a pIC50 (293FT cells) of 4.89 and a pIC50 (HPV16-PsV) of 5.40.

With Bleomycin the pIC50 (293FT cells) was 5.70 and the pIC50 (HPV16-PsV) was greater than 8.15.

In the case of Cc1cc2nc3ccc(N(C)C)cc3[s+]c2cc1N [Tolonium chloride], the pIC50 (293FT cells; Homo sapiens) was 5.40 and the pIC50 (HPV16-PsV; 72 h) was 5.70.

With CC[C@@]1(O)C(=O)OCc2c1cc1n(c2=O)Cc2cc3c([N+](=O)[O-])cccc3nc2-1 [Rubitecan] the pIC50 (HPV16-PsV; 72 h) was 6.10.

In the case of O=C1C=C2C=C[C@@H]3C[C@@]2(O1)[C@H]1CCCCN31 [Securinine], the “effect on SV40 promoter activity” value (SV40 promoter) was “did not significantly affect”, the viability at 30 µM (in vitro) was greater than 95% and the pIC50 (293FT cells; Homo sapiens) was 5.40. For the same compound, the cellular cytotoxicity (293FT cells; lead drugs, triplicate) was less than 10.0%, the “reduction of HPV-16PsV infection, fold change compared with the control of cells only” value (HPV16-PsV) was 1.5 fold and the pIC50 (HPV16-PsV; 72 h) was 5.70.

For N=C(N)c1ccc(OCCCCCOc2ccc(C(=N)N)cc2)cc1 [Pentamidine], the “effect on SV40 promoter activity” value (SV40 promoter) was “did not significantly affect”, the viability at 30 µM (in vitro) was greater than 95% and the pIC50 (293FT cells; Homo sapiens) was 5.05. For the same compound, the cellular cytotoxicity (293FT cells; human) was less than 10.0%, the “reduction of HPV-16PsV infection, fold change compared with the control of cells only” value (HPV16-PsV) was “twofold” and the pIC50 (HPV16-PsV; 72 h) was 5.70.

Compound Nc1nc(Cl)nc2c1ncn2[C@H]1C[C@H](O)[C@@H](CO)O1 [Cladribine] has a pIC50 (293FT cells; Homo sapiens) of 5.40.

For O=[N+]([O-])C(Br)(CO)CO [Bronopol], the pIC50 (293FT cells; Homo sapiens) was 5.15 and the pIC50 (HPV16-PsV; 72 h) was 5.52.

Compound COc1cc(NS(C)(=O)=O)ccc1Nc1c2ccccc2nc2ccccc12 [Amsacrine] has a pIC50 (293FT cells; Homo sapiens) of 6.00 and a pIC50 (HPV16-PsV; 72 h) of 8.00.

In the case of O=c1[nH]c(=O)n([C@H]2C[C@H](O)[C@@H](CO)O2)cc1F [Floxuridine], the pIC50 (HPV16-PsV; 72 h) was greater than 8.15.

Work on O=C1[O][Pt]2([NH][C@@H]3CCCC[C@H]3[NH]2)[O]C1=O [Oxaliplatin] yielded a pIC50 (293FT cells) of 5.10 and a pIC50 (HPV16-PsV) of 6.00.

In the case of O=c1[nH]cc(F)c(=O)[nH]1 [Fluorouracil], the pIC50 (293FT cells; Homo sapiens) was 4.89 and the pIC50 (HPV16-PsV; 72 h) was 6.00.
